Results taken from ChEMBL document CHEMBL4680330, “Soloxolone methyl, as a 18βH-glycyrrhetinic acid derivate, may result in endoplasmic reticulum stress to induce apoptosis in breast cancer cells” (Bioorg Med Chem, 2021).

Experiments:
[1] = tested on: MDA-MB-231; test: Induction of endoplasmic reticulum stress in human MDA-MB-231 cells assessed as BIP expression at 4.39 uM incubated for 24 hrs by Western blot analysis (reference value: 1); type: functional
[2] = tested on: MDA-MB-231; test: Induction of apoptosis in human MDA-MB-231 cells assessed as pro-caspase 8 level at 4.39 uM incubated for 24 hrs by Western blot analysis (reference value: 1); type: functional
[3] = tested on: MDA-MB-231; test: Induction of endoplasmic reticulum stress in human MDA-MB-231 cells assessed as IRE1-alpha expression at 4.39 uM incubated for 24 hrs by Western blot analysis (reference value: 1); type: functional
[4] = tested on: MDA-MB-231; test: Induction of apoptosis in human MDA-MB-231 cells assessed as pro-caspase 3 level at 4.39 uM incubated for 24 hrs by Western blot analysis (reference value: 1); type: functional
[5] = tested on: MDA-MB-231; test: Induction of apoptosis in human MDA-MB-231 cells assessed as PARP level at 4.39 uM incubated for 24 hrs by Western blot analysis (reference value: 1); type: functional
[6] = tested on: MDA-MB-231; test: Induction of endoplasmic reticulum stress in human MDA-MB-231 cells assessed as CHOP expression at 4.39 uM incubated for 24 hrs by Western blot analysis (reference value: 1); type: functional
[7] = tested on: MDA-MB-231; test: Induction of apoptosis in human MDA-MB-231 cells assessed as cleaved pro-caspase 3 level at 4.39 uM incubated for 24 hrs by Western blot analysis (reference value: 1); type: functional
[8] = tested on: MDA-MB-231; test: Induction of apoptosis in human MDA-MB-231 cells assessed as cleaved pro-caspase 8 level at 4.39 uM incubated for 24 hrs by Western blot analysis (reference value: 1); type: functional
[9] = tested on: MDA-MB-231; test: Induction of apoptosis in human MDA-MB-231 cells assessed as cleaved PARP level at 4.39 uM incubated for 24 hrs by Western blot analysis (reference value: 1); type: functional
[10] = tested on: Epidermoid carcinoma cell line; test: Cytotoxicity against human Epidermoid carcinoma cell line; type: functional, cell-based
[11] = tested on: MCF7; test: Cytotoxicity against human MCF7 cells assessed as reduction in cell viability incubated for 48 hrs by ATP based luminometry; type: functional; conditions: MCF7, 48 h

Row | Structure (SMILES) | fold change (FC) [1] | fold change (FC) [2] | fold change (FC) [3] | fold change (FC) [4] | fold change (FC) [5] | fold change (FC) [6] | fold change (FC) [7] | fold change (FC) [8] | fold change (FC) [9] | IC50 [10] | IC50 [11]
1 | COc1cccc2c1C(=O)c1c(O)c3c(c(O)c1C2=O)C[C@@](O)(C(=O)CO)C[C@@H]3O[C@H]1C[C@H](N)[C@H](O)[C@H](C)O1 [DOXORUBICIN] | 0.1 | 0.3 | 0.1 | 2.5 | 0.2 | 0.3 | 2 | 0.6 | 23.2 |  | 
2 | CC1(C)[C@@H](O)CC[C@]2(C)[C@H]3C(=O)C=C4[C@@H]5C[C@@](C)(C(=O)O)CC[C@]5(C)CC[C@@]4(C)[C@]3(C)CC[C@@H]12 [ENOXOLONE] |  |  |  |  |  |  |  |  |  | ≥ 0.3 µM | 32.6 µM
